# Assay results: publication PMC3673949, “Small Molecule R1498 as a Well-Tolerated and Orally Active Kinase Inhibitor for Hepatocellular Carcinoma and Gastric Cancer Treatment via Targeting Angiogenesis and Mitosis Pathways” (PLoS ONE, 2013)
# Like-named read-outs stand apart in the source and are kept apart here.
# What was measured:
# [1] = Dose range finding and toxicokinetic study; type: in vivo; conditions: for MTD at 2 week / AUC(0-t): po
# Protocol: Dose range finding and toxicokinetic study was carried out in rats and Beagle dogs based on in vitro metabolites identification. Wistar rats (male: 3, female 3 in each group, from Vital River, Beijing, China) were fasted overnight, and then received test articles as 0, 6.25, 50 and 100 mg/kg twice a day per oral gavage for a 14-day continuous regimen. Motility observation was applied on a daily bases to find the maximum tolerant dose for the animals. The animals were sacrificed on d14, and the following toxicology observation were carried out including body weight changes, clinical observation, gross necropsy, hematology chemistry and histopathology. On day 1 and day 14, blood samples were obtained via jugular vein puncture from all animals (if alive, using EDTA-K2 tubes). Samples were mixed gently and placed on crushed wet-ice until centrifugation, which was carried out immediately. The samples were centrifuged for approximately 15 minutes at 4°C 2,700 rpm. The resultant plasma was separated, transferred to uniquely labeled clear polypropylene tubes and frozen immediately over solid carbon dioxide (dry ice) until transferred to approximately −80°C. Each animal was bled at the following time points: approximately 5 min, 15 min, 30 min, 1, 2, 4, 8 and 24 hours post first dose on the specific day. The drug concentrations in the plasma were determined by LC-MS/MS. The pharmacokinetic analysis was performed using WinNonlin software (Version 5.2, Pharsight Corporation, CA, USA), and the pharmacokinetic parameters were calculated using a Non-compartmental model method.
# GC46 xenograft = assay: Patient primary gastric tumor derived xenograft; type: in vivo, BALB/C nu/nu nude mice; conditions: GC46, 25 mpk bid, p.o.
# Protocol: (§1) In human primary tumor models, fresh human gastric tumor tissues were directly implanted into nonobese diabetic and severe combined immune-deficient (NOD-SCID) mice within 5 hours post-surgery with 5 mm^3 fragments to establish primary tumor xenograft models. […] Treatment began when tumor volume reached 100∼150 mm^3. The tumor measurement and operation protocol was the same as cell line derived tumor model.
# GC318 xenograft = assay: Patient primary gastric tumor derived xenograft; type: in vivo, BALB/C nu/nu nude mice; conditions: GC318, 25 mpk bid, p.o.
# Protocol: as §1
# GC16 xenograft = assay: Patient primary gastric tumor derived xenograft; type: in vivo, BALB/C nu/nu nude mice; conditions: GC16, 25 mpk bid, p.o.
# Protocol: as §1
# [2] = test system: hepatocellular carcinoma cell lines; assay: Cell proliferation assay (CCK-8, 72 h); type: cell-based; conditions: Homo sapiens, hepatocellular carcinoma cell line panel, read-out: overall mean IC50
# Protocol: (§2) Each cell line was seeded in a 96-well tissue culture plate (Corning, NY) at a predetermined density in 180 µL complete medium, attached overnight and treated by compound for another 72 h. Then the medium was discarded and replaced with 10% CCK-8 (Dojindo, Kumamoto, Japan) in complete medium, then incubated the plates for another 2 h. The OD450 was measured with SpectraMAX 190 spectrophotometer (MDS, Sunnyvale, CA). A background absorbance of ODblank was subtracted from all wells.
# [3] = test system: gastric cancer cell lines; assay: Cell proliferation assay (CCK-8, 72 h); type: cell-based; conditions: Homo sapiens, gastric cancer cell line panel, read-out: overall mean IC50
# Protocol: as §2
# [4] = test system: nasopharyngeal carcinoma cell lines; assay: Cell proliferation assay (CCK-8, 72 h); type: cell-based; conditions: Homo sapiens, nasopharyngeal carcinoma cell line panel, read-out: overall mean IC50
# Protocol: as §2
# [5] = Plasma and tumor exposure at steady state in xenograft-bearing mice; type: in vivo, nude mice; design: Tumor AUC @ SS: unit not given here; conditions: for AUC: nude, mouse, po, read-out: Plasma AUC @ SS
# From the text: Supplementary file pone.0065264.s004.doc: Table S3 ED60/90 estimation from the R1498 exposure at steady state in tumors. The exposure in plasma and tumor at steady state were plot against tumor growth inhibiton rate to estimate the ED60/E90 doses. (DOC) Click here for additional data file.
smiles,measurement,setting,value
COc1ccc2c(c1)C(c1ccccc1Cl)=Nc1c(n[nH]c1C)N2 [R1498],dose at which body weight loss began,[1]; female rats,12.5 mg/kg
same,MTD AUC / ED90 AUC,"[1]; female, Wistar, rat, in vivo",8.1
same,MTD at 2 week,"[1]; female, Wistar, rat, in vivo",50 mg/kg
same,AUC(0-t),"[1]; female, Wistar, rat, in vivo, 50 mg/kg",211000 ng·h/mL
same,dose at which body weight loss began,[1]; male rats,100 mg/kg
same,MTD at 2 week,"[1]; male, Wistar, rat, in vivo",> 100 mg/kg
same,AUC(0-t),"[1]; male, Wistar, rat, in vivo, 100 mg/kg",> 155000 ng·h/mL
same,Regression,GC46 xenograft,2/10
same,TGI%,GC46 xenograft,73.6%
same,Regression,GC318 xenograft,1/10
same,TGI%,GC318 xenograft,91.6%
same,Regression,GC16 xenograft,3/10
same,TGI%,GC16 xenograft,89.3%
same,IC50,[2],7.81 µM
same,IC50,[3],7.55 µM
same,IC50,[4],30.1 µM
same,Tumor AUC @ SS,"[5]; BEL-7402, 3.125 mpk, bid, PO",2219
same,Tumor AUC @ SS,"[5]; BEL-7402, 6.25 mpk, bid, PO",6713
same,Tumor AUC @ SS,"[5]; BEL-7402, 12.5 mpk, bid, PO",23886
same,Tumor AUC @ SS,"[5]; BEL-7404, 3.125 mpk, bid, PO",9251
same,Tumor AUC @ SS,"[5]; BEL-7404, 6.25 mpk, bid, PO",17558
same,Tumor AUC @ SS,"[5]; BEL-7404, 12.5 mpk, bid, PO",37142
same,Tumor AUC @ SS,"[5]; BEL-7404, 12.5 mpk, single dose, PO (PK arm)",30996
same,Tumor AUC @ SS,"[5]; BGC-823 (model cell empty, from line above), 25 mpk, single dose, PO (PK arm)",49597
same,Tumor AUC @ SS,"[5]; BGC-823, 6.25 mpk, bid, PO",9906
same,Tumor AUC @ SS,"[5]; BGC-823, 12.5 mpk, bid, PO",39971
same,Tumor AUC @ SS,"[5]; BGC-823, 25 mpk, bid, PO",70897
same,Tumor AUC @ SS,"[5]; SGC-7901 (model cell empty, from line above), 25 mpk, single dose, PO (PK arm)",147592
same,Tumor AUC @ SS,"[5]; SGC-7901, 6.25 mpk, bid, PO",25249
same,Tumor AUC @ SS,"[5]; SGC-7901, 12.5 mpk, bid, PO",48130
same,Tumor AUC @ SS,"[5]; SGC-7901, 25 mpk, bid, PO",78767
same,AUC,"[5]; in vivo, 12.5 mg/kg, BEL-7402, 12.5 mpk, bid, PO",26100 ng·h/mL
same,AUC,"[5]; in vivo, 12.5 mg/kg, BEL-7404, 12.5 mpk, bid, PO",21600 ng·h/mL
same,AUC,"[5]; in vivo, 12.5 mg/kg, BEL-7404, 12.5 mpk, single dose, PO (PK arm)",15200 ng·h/mL
same,AUC,"[5]; in vivo, 12.5 mg/kg, BGC-823, 12.5 mpk, bid, PO",31100 ng·h/mL
same,AUC,"[5]; in vivo, 12.5 mg/kg, SGC-7901, 12.5 mpk, bid, PO",26900 ng·h/mL
same,AUC,"[5]; plasma, 3.125 mg/kg, BEL-7402, 3.125 mpk, bid, PO",5380 ng·h/mL
same,AUC,"[5]; plasma, 3.125 mg/kg, BEL-7404, 3.125 mpk, bid, PO",3560 ng·h/mL
same,AUC,"[5]; plasma, 6.25 mg/kg, BEL-7402, 6.25 mpk, bid, PO",12600 ng·h/mL
same,AUC,"[5]; plasma, 6.25 mg/kg, BEL-7404, 6.25 mpk, bid, PO",6560 ng·h/mL
same,AUC,"[5]; plasma, 6.25 mg/kg, BGC-823, 6.25 mpk, bid, PO",10800 ng·h/mL
same,AUC,"[5]; plasma, 6.25 mg/kg, SGC-7901, 6.25 mpk, bid, PO",11400 ng·h/mL
same,AUC,"[5]; plasma, 25 mg/kg, BGC-823 (model cell empty, from line above), 25 mpk, single dose, PO (PK arm)",73300 ng·h/mL
same,AUC,"[5]; plasma, 25 mg/kg, BGC-823, 25 mpk, bid, PO",43300 ng·h/mL
same,AUC,"[5]; plasma, 25 mg/kg, SGC-7901 (model cell empty, from line above), 25 mpk, single dose, PO (PK arm)",70100 ng·h/mL
same,AUC,"[5]; plasma, 25 mg/kg, SGC-7901, 25 mpk, bid, PO",47900 ng·h/mL
